Test results from patent US8410170B2, “Use of isothiocyanates compounds in treating prostatic diseases and skin cancer” (Wuxi JC Pharmaceutical Technology Co., Ltd., priority 2005, dated 2013).

Assays:
Sp1 = experiment: Western blot to detect Sp1 in LNCaP cells; format: cell-based, human; conditions: 24 hrs
Method: The cells were harvested, washed and total cellular proteins were extracted as described previously (as Example 2). Fifty μg proteins were then subjected to electrophoresis in SDS-PAGE, electro-transferred to nitrocellulose filters, and immunoblotted initially with antibodies against AR, Sp1, and PSA. The same membranes were stripped and re-probed with β-actin for loading control. The result was recorded by ECL films.

androgen-induced BPH = experiment: Therapeutic effects on BPH: Test Two (castrated rats, testosterone propionate; weights and histopathology); format: in vivo, SD rats
Method: Thirty-six male SD rats were randomly divided into 4 groups, nine each. Group 1 was served as blank control group (pseudo-surgery control group) in which animals were under the same surgical procedures except no testis was sectioned and fed normally. Groups from 2 to 4 were served as treatment groups in which all animals were anesthetized using ketamine and castrated by removing both testises under sterile conditions. After the surgery, the penicillin was injected to prevent the animals from infection. One week later, the testosterone propionate was injected subcutaneously at dose of 5 mg/kg, once a day for a month. […] Group 3 was served as positive control group in which animals were given Proscar by gavage at dose of 0.1 mg/rat/day for a month beginning on the same day that the testosterone propionate was injected.
Twenty-four hrs after the last dose, the animals were euthanized and weighed. Volume and weight of prostate were measured. The averages of prostate volume/weight and organ coefficient (average weight of prostate/average of body weight) were calculated, and statistical analysis performed (t test).
Prostate tissues of animals from different groups were embedded with paraffin. The tissue sections were stained with H&E for histpathological examination by an anatomical pathologist.

[1] = test system: human prostate cancer cell line LNCaP; experiment: MTT and SRB cell growth assay, LNCaP; format: cell-based
Method: MTT and SRB method as described in the reference (Kreis, Budman et al. 1997). Briefly, human prostate cancer cells grown exponentially were aliquoted into 96-well plates at a density of 5000 cells/200 μl per well. Twenty-four hrs after the incubation, the cells were exposed for three or seven days to serial dilutions of indicated isothiocyanate. After the incubation, 100 μl of the medium was removed from each of the wells and 50 μl solution of 3-(4,5-dimethyl-thiazol-2-yl)-2,5-diphenyltetrazolium bromide (MTT) was added, the cells were incubated for an additional 4 hrs and then 200 μl of 0.04 N HCl-isopropanol was added to each well to dissolve the black formazan precipitates. The absorbance was measured at wavelength 540 nm. For SRB method, remove the medium after 72 hrs. The cells on 96-well dishes were fixed with 10% trichloride acetic acid for 1 hr, air-dried for 24 hrs. The cells were then stained with 50 μl of SRB (sulforhodamine B) for […]. After extensive washes with 1% acetic acid for 5 times, air-dried, the purple protein-SRB complex was dissolved in 200 μl 10 mM Tris-HCl buffer (pH 10.0), and the absorbance was measured at the wavelength of 540 and 630 nm. The percent of cell survival (T/C%) were calculated based on the results of test groups to that of the control group. The semi-exponential curves of the percent of cell survival (T/C%) to the drug concentrations (FIG. 8) and IC50 were obtained by using Sigma-plot program.

LNCaP AI = experiment: MTT growth inhibition, hormone independent LNCaP AI; format: cell-based; conditions: Homo sapiens, LNCaP, 168 h, read-out: IC50, growth inhibition
Source text: The human prostate cancer cell line LNCaP AD was purchased from the American Type Culture Collection. LNCaP AI cell line was derived from LNCaP cells using a method described previously by Gao et al. (Gao, M., Ossowski, L., and Ferrari, A. C. Activation of Rb and decline in androgen receptor protein precede retinoic acid-induced apoptosis in androgen-dependent LNCaP cells and their androgen-independent derivative. J Cell Physiol, 179: 336-346, 1999). The AD and AI cells were maintained in RPMI-1640 with 10% fetal bovine serum (FBS) and charcoal stripped fetal bovine serum, penicillin-streptomycin for incubation at 5% CO2 and 37° C. respectively.
MTT: MTT and SRB method were used to determine the effects of various isothiocyanates on cell growth as described previously (Kreis, Budman et al, 1997). Briefly, human prostate cancer cell line LNCaP grown exponentially were aliquoted into 96-well plates at a density of 2500 cells/200 μl per well. Twenty-four hrs after the incubation, the cells were exposed for seven days to serial dilutions of indicated isothiocyanate or paclitaxel. […] The absorbance was measured at wavelength 540 nm. The percent of cell survival (T/C%) were calculated based on the results of test groups to that of the control group. […]

[2] = Stability testing of isothiocyanate compositions (60° C., HPLC); format: physicochemical; conditions: sealed vials, day 10, HPLC
Method: Suitable amount of API (isothiocyanates, as control) and compositions were placed into clean vials, and sealed with rubber stoppers plus aluminum caps. All samples were stored at 60° C., and then assayed by a validated HPLC method at time day 0, day 5, and day 10.

**Q.** Which “expression of Sp1 (Western blot)” value (Sp1) does the source give for `S=C=NCCc1ccccc1` [PEITC, phenethyl isothiocyanate] here?
**A.** significantly inhibited

**Q.** What about the “Average Body Weight” value (androgen-induced BPH; PEITC 2 mg/kg oral (Example 13-11), one month) of the same molecule?
**A.** 337 ± 23.7 g

**Q.** And the “Average Volume of Prostate” value (androgen-induced BPH; PEITC 2 mg/kg oral, one month)?
**A.** 1.42 ± 0.16 cm^3

**Q.** And the “Average Weight of Prostate” value (androgen-induced BPH; PEITC 2 mg/kg oral, one month)?
**A.** 1.20 ± 0.16 g

**Q.** What about the “Inhibition of Organ Coefficient” value (androgen-induced BPH; PEITC 2 mg/kg oral, one month) of the same molecule?
**A.** 16.28%

**Q.** What about the “Organ Coefficient” value (androgen-induced BPH; PEITC 2 mg/kg oral, one month) of the same molecule?
**A.** 0.36 ± 0.06%

**Q.** What about the “Acinar Density: no. of animals with score 0” value (androgen-induced BPH; PEITC 2 mg/kg, 9 animals) of the same molecule?
**A.** 7

**Q.** And the “Acinar Density: no. of animals with score +” value (androgen-induced BPH; PEITC 2 mg/kg, 9 animals)?
**A.** 2

**Q.** And the “Acinar Density: no. of animals with score ++” value (androgen-induced BPH; PEITC 2 mg/kg, 9 animals)?
**A.** 0

**Q.** And the “Acinar Density: no. of animals with score +++” value (androgen-induced BPH; PEITC 2 mg/kg, 9 animals)?
**A.** 0

**Q.** What about the “Connective tissue proliferation, or papillary hyperplasia: no. of animals with score 0” value (androgen-induced BPH; PEITC 2 mg/kg, 9 animals) of the same molecule?
**A.** 8

**Q.** And the “Connective tissue proliferation, or papillary hyperplasia: no. of animals with score +” value (androgen-induced BPH; PEITC 2 mg/kg, 9 animals)?
**A.** 1

**Q.** What about the “Connective tissue proliferation, or papillary hyperplasia: no. of animals with score ++” value (androgen-induced BPH; PEITC 2 mg/kg, 9 animals) of the same molecule?
**A.** 0

**Q.** And the “Connective tissue proliferation, or papillary hyperplasia: no. of animals with score +++” value (androgen-induced BPH; PEITC 2 mg/kg, 9 animals)?
**A.** 0

**Q.** And the “Enlargement of Lumen of Gland: no. of animals with score 0” value (androgen-induced BPH; PEITC 2 mg/kg, 9 animals)?
**A.** 3

**Q.** And the “Enlargement of Lumen of Gland: no. of animals with score +” value (androgen-induced BPH; PEITC 2 mg/kg, 9 animals)?
**A.** 6

**Q.** And the “Enlargement of Lumen of Gland: no. of animals with score ++” value (androgen-induced BPH; PEITC 2 mg/kg, 9 animals)?
**A.** 0

**Q.** What about the “Enlargement of Lumen of Gland: no. of animals with score +++” value (androgen-induced BPH; PEITC 2 mg/kg, 9 animals) of the same molecule?
**A.** 0

**Q.** What about the “Histopathological score of BPH, Average X ± SD” value (androgen-induced BPH; PEITC 2 mg/kg, 9 animals) of the same molecule?
**A.** 1.78 ± 1.09

**Q.** And the “Secretions of Gland: no. of animals with score 0” value (androgen-induced BPH; PEITC 2 mg/kg, 9 animals)?
**A.** 3

**Q.** And the “Secretions of Gland: no. of animals with score +” value (androgen-induced BPH; PEITC 2 mg/kg, 9 animals)?
**A.** 5

**Q.** And the “Secretions of Gland: no. of animals with score ++” value (androgen-induced BPH; PEITC 2 mg/kg, 9 animals)?
**A.** 1

**Q.** And the “Secretions of Gland: no. of animals with score +++” value (androgen-induced BPH; PEITC 2 mg/kg, 9 animals)?
**A.** 0

**Q.** What about the “lumen, secretary materials in the lumen and density of prostatic acinars, versus untreated BPH tissues (slide)” value (androgen-induced BPH; PEITC 2 mg/kg, FIG. 6.5) of the same molecule?
**A.** reduced

**Q.** And the “Percent of Cell Survival (T/C %)” value ([1]; 0.0390 μM, LNCaP)?
**A.** 102.60%

**Q.** And the “Percent of Cell Survival (T/C %)” value ([1]; 0.0780 μM, LNCaP)?
**A.** 102.10%

**Q.** And the “Percent of Cell Survival (T/C %)” value ([1]; 0.1562 μM, LNCaP)?
**A.** 88.10%

**Q.** And the “Percent of Cell Survival (T/C %)” value ([1]; 0.3125 μM, LNCaP)?
**A.** 82.25%

**Q.** And the “Percent of Cell Survival (T/C %)” value ([1]; 0.6250 μM, LNCaP)?
**A.** 82.25%

**Q.** What about the “Percent of Cell Survival (T/C %)” value ([1]; 1.2500 μM, LNCaP) of the same molecule?
**A.** 78.12%

**Q.** What about the “Percent of Cell Survival (T/C %)” value ([1]; 2.5000 μM, LNCaP) of the same molecule?
**A.** 30.24%

**Q.** And the “Percent of Cell Survival (T/C %)” value ([1]; 5.0000 μM, LNCaP)?
**A.** 10.06%

**Q.** What about the “Percent of Cell Survival (T/C %)” value ([1]; 10.0000 μM, LNCaP) of the same molecule?
**A.** 1.52%

**Q.** What about the “Percent of Cell Survival (T/C %)” value ([1]; 20.0000 μM, LNCaP) of the same molecule?
**A.** 0.56%

**Q.** And the IC50 ([1]; Homo sapiens, LNCaP, MTT and SRB, read-out: IC50, growth inhibition)?
**A.** 0.8 to 1.5 µM

**Q.** What about the “inhibitory effect on growth of human prostate cancer cells stronger than B16 cells” value ([1]; LNCaP versus B16) of the same molecule?
**A.** 8-10 times

**Q.** And the IC50 (LNCaP AI)?
**A.** 0.6 µM

**Q.** And the “API % under 60° C. for 10 days” value [2]?
**A.** 95.2%
